Source: patent US20250367301A1, “PHARMACEUTICAL COMPOSITION FOR PREVENTING OR TREATING TRIPLE-NEGATIVE BREAST CANCER, COMPRISING OLIGONUCLEOTIDE AS ACTIVE INGREDIENT” (INTEROLIGO CORPORATION, priority 2021, published 2025)

Experiments:
[1] = tested on: 4T1-Luc2 triple-negative breast cancer orthotopic tumor resection model; experiment: Antitumor efficacy via intraperitoneal injection in TNBC orthotopic animal model (tumor resection model); assay type: in vivo, female Balb/c mice
4T1 Luc2 cell line = experiment: Intracellular uptake by flow cytometry in 4T1 Luc2 cells; assay type: cell-based, mouse; details: flow cytometry of 4T1 cells
Method: In this experiment, 4T1 Luc2 cell line (ATCC, USA) was used and the cells were cultured using the same method described in 3-1-1.
The medium was replaced with RPMI medium containing 5% FBS and treated with drugs for additional 2, 4, 6, 24 hours, and then DAPI staining was performed after the reaction was completed. The finished samples were compared using a flow cytometer (Beckman Coulter CytoFlex (3 lasers)) to measure the degree of fluorescence expression against the control cell line.

[2] = tested on: TNBC metastasis after surgical resection; details: after 50 days post-insertion of the drug/hydrogel patch at the resection site; mice; cited from earlier work

Molecule: (Gem)2-[TGG]4[TTG][TGG]5 (NNTGGTGGTGGTGGTTGTGGTGGTGGTGGTGG; two 5' gemcitabine; modified_base 1 OTHER; 2', 2'-difluoro deoxycytidine; modified_base 2 OTHER) [IO101L, modified oligonucleotide, two gemcitabine at the 5′ end]
- mice with confirmed lung metastasis ([1]; 2 mg intraperitoneal every other day, 10 times, after tumor resection): 3 out of 7
- inhibition of cancer metastasis compared to positive control gemcitabine ([1]; intraperitoneal, post-TNBC tumor resection): significantly inhibited cancer metastasis
- mice surviving until day 76 ([1]; mouse, in vivo, ip): 4 out of 7
- intracellular influx compared with the IO101L-control group (4T1 Luc2 cell line; FIG. 4): significantly superior

Molecule: Nc1ccn([C@@H]2O[C@H](CO)[C@@H](O)C2(F)F)c(=O)n1 [gemcitabine, 2′,2′-difluorodeoxycytidine, reference compound]
- time within which all mice died (lung metastasis) ([1]; 1 mg intraperitoneal every other day, 10 times, after tumor resection, 5 mice): ≤ 30 days

Molecule: Nc1ncnc2c1ncn2C1O[C@@H]2CO[P@@](=O)([S-])O[C@H]3[C@@H](O)[C@H](n4cnc5c(N)ncnc54)O[C@@H]3CO[P@@](=O)([S-])O[C@@H]1[C@@H]2O.[Na+].[Na+] (stereo partly shown) [STING-RR]
- survival rate [2]: 60%

Molecule: Cy5-(Gem)(Gem)[TGG]4[TTG][TGG]5 [Cy5-labeled IO101L]
- Cy5-labeled IO101L found to enter the cells (4T1 Luc2 cell line; after 24 hours): over 80%
